Measurements as given in US6465491B2, “6-phenylpyridyl-2-amine derivatives” (Pfizer Inc., priority 1996, dated 2002).
Counter-ions that a name gives are not always drawn.

| SMILES | melting point |
| --- | --- |
| Nc1cccc(-c2ccc(CCN3CCC(NC(=O)Cc4ccc(F)cc4)C3)cc2)n1 (stereo not shown) [Example 56, N-(1-{2-[4-(6-Amino-pyridin-2-yl)-phenyl]-ethyl}-pyrrolidin-3-yl)-2-(4-fluoro-phenyl)-acetamide] | 90 °C (dec.) |
| Cc1cccc(NC(=O)N2CCN(CCc3ccc(-c4cccc(N)n4)cc3)CC2)c1 [Example 45, 4-{2-[4-(6-Amino-pyridin-2-yl)-phenyl]-ethyl}-piperazine-1-carboxylic acid m-tolyl-amide] | 88 to 94 °C |
| CC(=O)N(CCc1ccc(-c2cccc(N)n2)cc1)C1CCN(Cc2ccccc2)CC1 (as salt: hydrochloride) | 60 to 70 °C (dec.) |
| Nc1cccc(-c2ccc(CCN3CCN(C(=O)Cc4ccc(Cl)cc4)CC3)cc2)n1 (as salt: hydrochloride) | 205 °C (dec.) |
| Nc1cccc(-c2ccc(CCN3CCN(C(=O)Cc4ccc(F)cc4)CC3)cc2)n1 | 143 to 145 °C |
| Nc1cccc(-c2ccc(CCN3CCN(C(=O)NCc4ccccc4)CC3)cc2)n1 [Example 47, 4-{2-[4-(6-Amino-pyridin-2-yl)-phenyl]-ethyl}-piperazine-1-carboxylic acid benzylamide] | 172 to 181 °C |
| Nc1cccc(-c2ccc(CCNCCCCCc3ccccc3)cc2)n1 [Example 126, 6-{4-[2-(5-Phenyl-pentylamino)-ethyl]-phenyl}-pyridin-2-ylamine] | 60 to 70 °C |
| Cc1cc(N)nc(-c2ccc(CCN3CCN(CCc4ccccc4)CC3)cc2)c1 (as salt: hydrochloride) [Example 128, 6-{4-[2-(4-Phenethyl-piperazin-1-yl)-ethyl]-phenyl}-4-methyl-pyridin-2-ylamine] | 242 to 250 °C |
| Nc1cccc(-c2ccc(CCN(Cc3ccncc3)Cc3ccncc3)cc2)n1 (as salt: hydrochloride) [Example 120, 6-{4-[2-(Bis-pyridin-4-ylmethyl-amino)-ethyl]-phenyl}-pyridin-2-ylamine] | 150 to 163 °C (dec.) |
| Nc1cccc(-c2ccc(CCN3CCC(NC(=O)Nc4ccccc4)C3)cc2)n1 (stereo not shown) (as salt: hydrochloride) [Example 72, 1-(1-{2-[4-(6-Amino-pyridin-2-yl)-phenyl]-ethyl}-pyrrolidin-3-yl)-3-phenyl-urea] | 130 °C (dec.) |
| Nc1cccc(-c2ccc(CCN3CCN(C(=O)C(N)Cc4ccccc4)CC3)cc2)n1 (stereo not shown) (as salt: hydrochloride) [Example 61, 2-Amino-1-(4-{2-[4-(6-amino-pyridin-2-yl)-phenyl]-ethyl}-piperazin-1-yl)-3-phenyl-propan-1-one] | 230 °C (dec.) |
| Nc1cccc(-c2ccc(CCN3CCN(CCCc4ccccc4)CC3)cc2)n1 (as salt: hydrochloride) [Example 40, 6-(4-{2-[4-(3-Phenyl-propyl)-piperazin-1-yl]-ethyl}-phenyl)-pyridin-2-ylamine] | 258 to 264 °C |
| CC(Cc1ccccc1)N1CCN(CCc2ccc(-c3cccc(N)n3)cc2)CC1 (stereo not shown) (as salt: hydrochloride) [Example 54, 6-(4-{2-[4-(1-Methyl-2-phenyl-ethyl)-piperazin-1-yl]-ethyl}-phenyl)-pyridin-2-ylamine] | 252 to 256 °C |
| Nc1cccc(-c2ccc(CCN3CCN(CC(O)c4ccccc4)CC3)cc2)n1 (stereo not shown) (as salt: hydrochloride) [Example 103, 2-(4-{2-[4-(6-Amino-pyridin-2-yl)-phenyl]-ethyl}-piperazin-1-yl)-1-phenyl-ethanol] | 235 °C (dec.) |
| Nc1cccc(-c2ccc(CCN3CCN(C(c4ccccc4)c4ccccc4)CC3)cc2)n1 (as salt: hydrochloride) [Example 89, 6-{4-[2-(4-Benzhydryl-piperazin-1-yl)-ethyl]-phenyl}-pyridin-2-ylamine] | 170 °C (dec.) |
| Nc1cccc(-c2ccc(CCN3CCC4(CC3)NC(=O)N(Cc3ccccc3)C4=O)cc2)n1 (as salt: hydrochloride) [Example 43, 8-{2-[4-(6-Amino-pyridin-2-yl)-phenyl]-ethyl}-3-benzyl-1,3,8-triaza-spiro[4.5]decane-2,4-dione] | 190 °C (dec.) |

Results, then the compound that gave them:

| melting point | SMILES |
| --- | --- |
| 122 to 125 °C | Cc1ccc(NC(=O)N2CCN(CCc3ccc(-c4cccc(N)n4)cc3)CC2)cc1C [Example 41, 4-{2-[4-(6-Amino-pyridin-2-yl)-phenyl]-ethyl}-piperazine-1carboxylic acid (3,4-dimethyl-phenyl)-amide] |
| 235 °C (dec.) | Nc1cccc(-c2ccc(CCN3CC4CCC(C3)C4N)cc2)n1 (stereo not shown) (as salt: hydrochloride) |
| 110 °C (dec.) | Nc1cccc(-c2ccc(CCN3Cc4ccccc4CC3C(=O)O)cc2)n1 (stereo not shown) (as salt: hydrochloride) [Example 28, 2-{2-[4-(6-Amino-pyridin-2-yl)-phenyl]ethyl}-1,2,3,4-tetrahydro-isoquinoline-3-carboxylic acid] |
| 120 to 130 °C | Nc1cccc(-c2ccc(CCCNC3CCc4ccccc4C3)cc2)n1 (stereo not shown) (as salt: hydrochloride) [Example 127, 6-{4-[3-(1,2,3,4-Tetrahydro-naphthalen-2-ylamino)-propyl]-phenyl}-pyridin-2-ylamine] |
| 132 °C (dec.) | CN1CC2CC1CN2CCc1ccc(-c2cccc(N)n2)cc1 (stereo not shown) (as salt: hydrochloride) |
| 100 °C (dec.) | Nc1cccc(-c2ccc(CCNC3CC4COCC(C3)N4)cc2)n1 (stereo not shown) (as salt: hydrochloride) [104] |
| > 250 °C | Nc1cccc(-c2ccc(CN3CCCCC3)cc2)n1 (as salt: hydrochloride) [Example 138, 6-(4-Piperidin-1-ylmethyl-phenyl)-pyridin-2-ylamine] |
| 170 °C (dec.) | Nc1cccc(-c2ccc(CCN3CCC(NC(=O)Cc4ccc(F)cc4)CC3)cc2)n1 (as salt: hydrochloride) [Example 65, N-(1-{2-[4-(6-Amino-pyridin-2-yl)-phenyl]-ethyl}-piperidin-4-yl)-2-(4-fluoro-phenyl)-acetamide] |
| 125 to 127 °C | Nc1cccc(-c2ccc(CCN3CCN(C(=O)c4ccccc4)CC3)cc2)n1 [Example 25, (4-{2-[4-(6-Amino-pyridin-2-yl)-phenyl]-ethyl}-piperazin-1-yl)-phenyl-methanone] |
| 192 to 194 °C | Nc1cccc(-c2ccc(CCN3CC4C(C3)C4NC(=O)Nc3ccccc3)cc2)n1 (stereo not shown) [Example 36, 1-(3-{2-[4-(6-Amino-pyridin-2-yl)-phenyl]-ethyl}-3-aza-bicyclo[3.1.0]hex-6-yl)-3-phenyl-urea] |
| 163 to 165 °C | CC(C)NC(=O)CN1CCN(CCc2ccc(-c3cccc(N)n3)cc2)CC1 [Example 23, 2-(4-{2-[4-(6-Amino-pyridin-2-yl)-phenyl]-ethyl}-piperazin-1-yl)-N-isopropyl-acetamide] |
| 260 °C (dec.) | Nc1cccc(-c2ccc(CCNC3CC4CCC(C3)N4Cc3ccccc3)cc2)n1 (stereo not shown) (as salt: hydrochloride) |
| 190 to 195 °C | Nc1cccc(-c2ccc(CCN3CCC(N)CC3)cc2)n1 (as salt: trifluoroacetate) [Example 67, 6-{4-[2-(4-Amino-piperidin-1-yl)-ethyl]-phenyl}-pyridin-2-ylamine] |
| 215 to 219 °C (dec.) | Nc1cccc(-c2ccc(CCN3CCC(N)(C(=O)NCCc4ccccc4)CC3)cc2)n1 (as salt: hydrochloride) [Example 79, 4-Amino-1-{2-[4-(6-amino-pyridin-2-yl)-phenyl]-ethyl}-piperidine-4-carboxylic acid phenethyl-amide] |
| 161 to 163 °C | Nc1cccc(-c2ccc(CCN3CC4C(C3)C4NC(=O)Cc3ccc(F)cc3)cc2)n1 (stereo not shown) [Example 38, N-(3-{2-[4-(6-Amino-pyridin-2-yl)-phenyl]-ethyl}-3-aza-bicyclo[3.1.0]hex-6-yl)-2-(4-fluoro-phenyl)-acetamide] |
| 148 to 150 °C | COCC(=O)N1CCN(CCc2ccc(-c3cccc(N)n3)cc2)CC1 [Example 11, 1-(4-{2-[4-(6-Amino-pyridin-2-yl)-phenyl]-ethyl}-piperazin-1-yl)-2-methoxy-ethanone] |
| 201 to 203 °C | CC(=O)N1CCN(CCc2ccc(-c3cccc(N)n3)cc2)CC1 [Example 10, 1-(4-{2-[4-(6-Amino-pyridin-2-yl)-phenyl]-ethyl}-piperazin-1-yl)-ethanone] |
| 140 °C (dec.) | NC(=O)CNC1C2CN(CCc3ccc(-c4cccc(N)n4)cc3)CC21 (stereo not shown) [Example 52, 2-(3-{2-[4-(6-Amino-pyridin-2-yl)-phenyl]-ethyl}-3-aza-bicyclo[3.1.0]hex-6-ylamino)-acetamide] |
| 130 to 132 °C | Nc1cccc(-c2ccc(CCN3CCc4ccccc4C3)cc2)n1 [Example 6, 6-{4-[2-(3,4-Dihydro-1H-isoquinolin-2-yl)-ethyl]-phenyl}-pyridin-2-ylamine] |
| 150 °C (dec.) | Nc1cccc(-c2ccc(CCN3CCCC(N)C3)cc2)n1 (stereo not shown) (as salt: hydrochloride) [Example 86, 6-{4-[2-(3-Amino-piperidin-1-yl)-ethyl]-phenyl}-pyridin-2-ylamine] |
| 170 °C (dec.) | CN1CCN(CCc2ccc(-c3cccc(N)n3)cc2)CC1 (as salt: hydrochloride) [Example 109, 6-{4-[2-(4-Methyl-piperazin-1-yl)-ethyl]-phenyl}-pyridin-2-ylamine] |
| 215 to 230 °C (dec.) | Nc1cccc(-c2ccc(CCNC3C4CC5CC(C4)CC3C5)cc2)n1 (stereo not shown) (as salt: hydrochloride) [Example 116, 6-{4-[2-(Adamantan-2-ylamino)-ethyl]-phenyl}-pyridin-2-ylamine] |
| 190 °C (dec.) | Nc1cccc(-c2ccc(CCNC3C4CCCC3CN(Cc3ccccc3)C4)cc2)n1 (stereo not shown) (as salt: hydrochloride) [Example 84, {2-[4-(6-Amino-pyridin-2-yl)-phenyl]-ethyl}-(3-benzyl-3-aza-bicyclo[3.3.1]non-9-yl)-amine] |
| > 250 °C | CN(Cc1ccc(-c2cccc(N)n2)cc1)C1CCCCC1 (as salt: hydrochloride) [Example 136, 6-{4-[(Cyclohexyl-methyl-amino)-methyl]-phenyl}-pyridin-2-ylamine] |
